Results published in publication PMC10110893, “[…]-derived synthetic cannabinoids inhibit T-type calcium channels with divergent effects on seizures in rodent models of epilepsy” (Frontiers in Physiology, 2023).
Read-outs that look alike come from different tables or passages of the source.

Legend:
[1] = Pharmacokinetics in mouse plasma and brain after single i.p. injection; type: in vivo; details: both sexes, 10 mg/kg i.p.; for AUC: wildtype F1, mouse, in vivo, 10 mg/kg
Procedure: (§1) SB2193 and SB2193F were prepared in ethanol-Tween 80%–0.9% saline (1:1:18 ratio) and valproic acid in 0.9% saline. All doses were completely soluble in this vehicle except for the 100 mg/kg SB2193 dose, which was a suspension.
Male and female wildtype F1 mice aged 21–28 days postnatal received a single i. p. injection of 10 mg/kg SB2193 or SB2193F. At selected timepoints (15–240 min), mice were anesthetised with isoflurane, blood was collected via cardiac puncture and whole brains were harvested. Brains were snap frozen on dry ice, and blood plasma was isolated via centrifugation (4,000 g for 10 min, 4^○C). Brain and plasma samples were stored at −80°C until assayed.
Plasma samples (50 μL) were spiked with an internal standard (diazepam) and vortexed with 1 M NaOH (50 μL) and methyl tert-butyl ether (1 mL) to achieve protein precipitation. The organic layer was isolated by centrifugation (4,000 g for 3 min) before being frozen for 60 min at −80°C, evaporated to dryness using N2, and reconstituted in 30% acetonitrile and 0.1% formic acid in water for analysis. Brain hemispheres were homogenised in a 10x w/v 1:1 methanol-water solution using a Biospec Tissue-Tearor (Bartlesville, United States) and centrifuged at 20,000 g for 30 min at 4°C. Supernatant (100 μL) was collected and prepared following the same method as plasma.
SB2193 and SB2193F concentrations in brain and plasma samples were assessed by high performance liquid chromatography-tandem mass spectrometry (HPLC-MS/MS) using a Shimadzu Nexera liquid chromatograph coupled with a Shimadzu 8,030 triple quadrupole mass spectrometer (Kyoto, Japan). Samples were run through a Zorbax C18 HPLC Column equipped with a Zorbax Eclipse XDB-C8 guard column (2.1 × 50 mm, 3.5 μm particle size; Agilent, Santa Clara, United States) with an injection volume of 10 μL using a gradient elution. Mobile phases of acetonitrile and 0.1% formic acid in water were delivered at a flow rate of 0.6 mL/min over 4.16 min, with a stepwise adjustment of mobile phase concentration gradient over time to optimise ion separation.
Quantification was achieved by comparing experimental samples to plasma and brain standards prepared with known concentrations of SB2193 or SB2193F. Samples were quantified against a 7-point standard curve (R ^2 > 0.98 for both analytes).
Concentrations of SB2193 or SB2193F in plasma and brain at each timepoint were averaged and concentration-time curves were generated using GraphPad Prism. Pharmacokinetic parameters were calculated using non-compartmental analysis. The linear-log trapezoidal method was used to calculate drug exposure (area under the curve, AUC) using equations previously described ([Hawkins et al., 2017]).

T-type channels = system: T-type channels; set-up: method as in Kevin et al., 2022; details: single 10 μM concentration, FLIPR calcium flux and whole-cell patch clamp, ref Kevin et al., 2022; cited from earlier work
human Cav3.1 = target: T1, human Cav3.1 (Homo sapiens, UniProt O43497); experiment: FLIPR calcium flux assay, Cav3.1; type: cell-based
T1 construct: expressed in transfected cells; host or cells: HEK293 FlpIn T-Rex cells (Invitrogen)
Procedure: (§2) HEK293 FlpIn T-Rex cells (Invitrogen, CA, United States) stably expressing human Cav3.1, Cav3.2, or Cav3.3 were maintained in Dulbecco’s Modified Eagle Medium (DMEM) supplemented with 10% foetal bovine serum (FBS), 1% penicillin-streptomycin (P/S) at 37°C, and 5% CO2 as previously described ([Bladen et al., 2021]; [Udoh et al., 2022]). Hygromycin (80 μg/mL) and blasticidin (15 μg/mL) were used as selection antibiotics and cells were passaged at 80% confluency. For experiments, cells were resuspended in Leibovitz’s L-15 media (containing 1% FBS, 1% P/S, 15 mM glucose, 2 μg/mL tetracycline), plated in black, clear-bottomed poly-D-lysine-coated 96-well plates (90 μL) (Corning, NY, United States), and incubated overnight in ambient air at 37°C. All compounds tested in cellular assays were prepared as stock solutions in DMSO and final DMSO concentration was 0.1%.
(§3) Intracellular calcium flux was measured using a fluorometric imaging plate-reader (FLIPR) Calcium 5 Assay Kit and FlexStation 3 Microplate Reader (Molecular Devices, San Jose, United States). Calcium 5 dye (90 μL) prepared in low potassium HBSS (Thermo Fisher Scientific) containing (in mM) 145 NaCl, 22 HEPES, 0.338 Na2HPO4, 4.17 NaHCO3, 0.441 KH2PO4, 0.407 MgSO4, 0.493 MgCl2, 1.26 CaCl2, 5.56 glucose, and […] with pH 7.4 was applied to each well and incubated for 1 h at 37°C, ambient air prior to testing.
(§4) Fluorescence readings were taken at 2 s intervals (λ excitation = 485 nm, λ emission = 525 nm). Following 2 min baseline reading, 20 μL of SB2193, SB2193F, or NNC 55-0396 (10 nM—10 μM) was added to cells and read for 5 min, then CaCl2 (10 mM) was added and read for 3 min. Baseline fluorescence averaged over the 20 s interval preceding CaCl2 addition was subtracted and normalized to the vehicle response. Changes in fluorescence were measured in relative fluorescence units (RFU). All compounds were assayed in ≥ five independent experiments (n = 5–8) performed in duplicate. Order of compound addition and location on the plate were varied between replicates. Data was fit to a four-parameter non-linear dose-response curve using GraphPad Prism 8.2.0 software (La Jolla, United States) to determine IC50 values.

human Cav3.2 = target: T2, human Cav3.2 (Homo sapiens, UniProt O95180); experiment: FLIPR calcium flux assay, Cav3.2; type: cell-based
T2 construct: expressed in transfected cells; host or cells: HEK293 FlpIn T-Rex cells (Invitrogen)
Procedure: Intracellular calcium flux was measured using a fluorometric imaging plate-reader (FLIPR) Calcium 5 Assay Kit and FlexStation 3 Microplate Reader (Molecular Devices, San Jose, United States). […]
Fluorescence readings were taken at 2 s intervals (λ excitation = 485 nm, λ emission = 525 nm). […] Baseline fluorescence averaged over the 20 s interval preceding CaCl2 addition was subtracted and normalized to the vehicle response. Changes in fluorescence were measured in relative fluorescence units (RFU). […]

human Cav3.3 = target: T3, human Cav3.3 (Homo sapiens, UniProt Q9P0X4); experiment: FLIPR calcium flux assay, Cav3.3; type: cell-based
T3 construct: expressed in transfected cells; host or cells: HEK293 FlpIn T-Rex cells (Invitrogen)
Procedure: as §2, §3, §4

[2] = Aqueous solubility (dosing observation); type: physicochemical; details: prevented assessment at doses above 100 mg/kg
Procedure: as §1

[3] = wildtype F1, in vivo, ip, mouse plasma

T2 sequence (O95180 whole entry): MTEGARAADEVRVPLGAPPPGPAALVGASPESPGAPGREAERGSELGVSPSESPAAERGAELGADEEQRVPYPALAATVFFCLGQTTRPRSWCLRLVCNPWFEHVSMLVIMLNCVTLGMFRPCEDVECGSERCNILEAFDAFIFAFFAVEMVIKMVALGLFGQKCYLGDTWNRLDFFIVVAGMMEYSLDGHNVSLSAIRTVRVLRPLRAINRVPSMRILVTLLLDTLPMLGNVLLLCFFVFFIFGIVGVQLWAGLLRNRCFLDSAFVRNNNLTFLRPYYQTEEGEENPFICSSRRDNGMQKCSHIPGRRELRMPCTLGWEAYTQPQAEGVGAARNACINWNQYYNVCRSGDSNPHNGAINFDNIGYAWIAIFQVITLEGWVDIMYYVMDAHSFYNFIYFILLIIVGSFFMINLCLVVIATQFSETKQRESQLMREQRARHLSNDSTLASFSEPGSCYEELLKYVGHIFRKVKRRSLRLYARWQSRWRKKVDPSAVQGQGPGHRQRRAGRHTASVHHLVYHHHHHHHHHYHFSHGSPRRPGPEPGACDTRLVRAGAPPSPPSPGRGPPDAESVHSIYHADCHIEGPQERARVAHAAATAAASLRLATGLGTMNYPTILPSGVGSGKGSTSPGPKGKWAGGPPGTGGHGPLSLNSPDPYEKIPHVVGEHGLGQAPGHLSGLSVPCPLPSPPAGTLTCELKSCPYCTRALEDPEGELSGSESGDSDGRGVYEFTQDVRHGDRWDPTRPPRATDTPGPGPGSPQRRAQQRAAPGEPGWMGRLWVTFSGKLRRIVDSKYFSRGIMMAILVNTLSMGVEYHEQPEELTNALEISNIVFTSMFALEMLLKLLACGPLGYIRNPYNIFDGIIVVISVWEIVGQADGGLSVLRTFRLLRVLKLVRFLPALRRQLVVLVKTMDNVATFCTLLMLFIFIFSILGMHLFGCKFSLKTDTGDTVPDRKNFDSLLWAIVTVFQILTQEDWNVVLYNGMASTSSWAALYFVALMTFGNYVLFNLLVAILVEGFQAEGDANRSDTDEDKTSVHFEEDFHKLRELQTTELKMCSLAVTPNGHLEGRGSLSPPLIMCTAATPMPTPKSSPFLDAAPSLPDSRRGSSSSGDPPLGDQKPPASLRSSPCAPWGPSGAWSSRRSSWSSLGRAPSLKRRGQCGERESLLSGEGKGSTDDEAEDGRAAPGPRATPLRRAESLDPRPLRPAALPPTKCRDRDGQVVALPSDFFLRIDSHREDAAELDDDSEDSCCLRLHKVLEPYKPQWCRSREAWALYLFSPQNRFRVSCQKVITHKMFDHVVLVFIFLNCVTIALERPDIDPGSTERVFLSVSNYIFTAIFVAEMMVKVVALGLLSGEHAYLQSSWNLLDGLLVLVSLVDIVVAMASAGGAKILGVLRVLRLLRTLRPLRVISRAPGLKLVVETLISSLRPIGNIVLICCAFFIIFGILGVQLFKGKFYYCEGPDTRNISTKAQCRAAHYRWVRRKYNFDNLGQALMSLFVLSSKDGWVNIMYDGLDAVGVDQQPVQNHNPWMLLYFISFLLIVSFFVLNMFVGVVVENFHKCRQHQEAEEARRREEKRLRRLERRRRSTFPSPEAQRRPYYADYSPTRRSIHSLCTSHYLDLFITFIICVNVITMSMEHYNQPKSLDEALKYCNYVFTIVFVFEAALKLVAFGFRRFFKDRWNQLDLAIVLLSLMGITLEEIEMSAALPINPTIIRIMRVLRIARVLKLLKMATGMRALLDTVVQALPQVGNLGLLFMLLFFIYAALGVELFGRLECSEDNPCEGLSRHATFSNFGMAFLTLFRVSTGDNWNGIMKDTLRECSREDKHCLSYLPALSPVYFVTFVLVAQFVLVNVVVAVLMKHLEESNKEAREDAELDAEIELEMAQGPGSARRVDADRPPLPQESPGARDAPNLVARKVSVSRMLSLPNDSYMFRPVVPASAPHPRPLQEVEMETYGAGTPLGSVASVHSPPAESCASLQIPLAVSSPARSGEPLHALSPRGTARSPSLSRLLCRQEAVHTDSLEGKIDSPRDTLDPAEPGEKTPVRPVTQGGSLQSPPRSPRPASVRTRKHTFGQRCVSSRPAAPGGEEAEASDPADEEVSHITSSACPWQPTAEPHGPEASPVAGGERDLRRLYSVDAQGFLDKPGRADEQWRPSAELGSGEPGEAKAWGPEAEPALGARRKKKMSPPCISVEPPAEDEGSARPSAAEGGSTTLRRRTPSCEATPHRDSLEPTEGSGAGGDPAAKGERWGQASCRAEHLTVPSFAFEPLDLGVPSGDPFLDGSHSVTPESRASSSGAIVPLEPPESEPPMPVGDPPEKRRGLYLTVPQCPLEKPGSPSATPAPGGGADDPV
T3 sequence (Q9P0X4 whole entry): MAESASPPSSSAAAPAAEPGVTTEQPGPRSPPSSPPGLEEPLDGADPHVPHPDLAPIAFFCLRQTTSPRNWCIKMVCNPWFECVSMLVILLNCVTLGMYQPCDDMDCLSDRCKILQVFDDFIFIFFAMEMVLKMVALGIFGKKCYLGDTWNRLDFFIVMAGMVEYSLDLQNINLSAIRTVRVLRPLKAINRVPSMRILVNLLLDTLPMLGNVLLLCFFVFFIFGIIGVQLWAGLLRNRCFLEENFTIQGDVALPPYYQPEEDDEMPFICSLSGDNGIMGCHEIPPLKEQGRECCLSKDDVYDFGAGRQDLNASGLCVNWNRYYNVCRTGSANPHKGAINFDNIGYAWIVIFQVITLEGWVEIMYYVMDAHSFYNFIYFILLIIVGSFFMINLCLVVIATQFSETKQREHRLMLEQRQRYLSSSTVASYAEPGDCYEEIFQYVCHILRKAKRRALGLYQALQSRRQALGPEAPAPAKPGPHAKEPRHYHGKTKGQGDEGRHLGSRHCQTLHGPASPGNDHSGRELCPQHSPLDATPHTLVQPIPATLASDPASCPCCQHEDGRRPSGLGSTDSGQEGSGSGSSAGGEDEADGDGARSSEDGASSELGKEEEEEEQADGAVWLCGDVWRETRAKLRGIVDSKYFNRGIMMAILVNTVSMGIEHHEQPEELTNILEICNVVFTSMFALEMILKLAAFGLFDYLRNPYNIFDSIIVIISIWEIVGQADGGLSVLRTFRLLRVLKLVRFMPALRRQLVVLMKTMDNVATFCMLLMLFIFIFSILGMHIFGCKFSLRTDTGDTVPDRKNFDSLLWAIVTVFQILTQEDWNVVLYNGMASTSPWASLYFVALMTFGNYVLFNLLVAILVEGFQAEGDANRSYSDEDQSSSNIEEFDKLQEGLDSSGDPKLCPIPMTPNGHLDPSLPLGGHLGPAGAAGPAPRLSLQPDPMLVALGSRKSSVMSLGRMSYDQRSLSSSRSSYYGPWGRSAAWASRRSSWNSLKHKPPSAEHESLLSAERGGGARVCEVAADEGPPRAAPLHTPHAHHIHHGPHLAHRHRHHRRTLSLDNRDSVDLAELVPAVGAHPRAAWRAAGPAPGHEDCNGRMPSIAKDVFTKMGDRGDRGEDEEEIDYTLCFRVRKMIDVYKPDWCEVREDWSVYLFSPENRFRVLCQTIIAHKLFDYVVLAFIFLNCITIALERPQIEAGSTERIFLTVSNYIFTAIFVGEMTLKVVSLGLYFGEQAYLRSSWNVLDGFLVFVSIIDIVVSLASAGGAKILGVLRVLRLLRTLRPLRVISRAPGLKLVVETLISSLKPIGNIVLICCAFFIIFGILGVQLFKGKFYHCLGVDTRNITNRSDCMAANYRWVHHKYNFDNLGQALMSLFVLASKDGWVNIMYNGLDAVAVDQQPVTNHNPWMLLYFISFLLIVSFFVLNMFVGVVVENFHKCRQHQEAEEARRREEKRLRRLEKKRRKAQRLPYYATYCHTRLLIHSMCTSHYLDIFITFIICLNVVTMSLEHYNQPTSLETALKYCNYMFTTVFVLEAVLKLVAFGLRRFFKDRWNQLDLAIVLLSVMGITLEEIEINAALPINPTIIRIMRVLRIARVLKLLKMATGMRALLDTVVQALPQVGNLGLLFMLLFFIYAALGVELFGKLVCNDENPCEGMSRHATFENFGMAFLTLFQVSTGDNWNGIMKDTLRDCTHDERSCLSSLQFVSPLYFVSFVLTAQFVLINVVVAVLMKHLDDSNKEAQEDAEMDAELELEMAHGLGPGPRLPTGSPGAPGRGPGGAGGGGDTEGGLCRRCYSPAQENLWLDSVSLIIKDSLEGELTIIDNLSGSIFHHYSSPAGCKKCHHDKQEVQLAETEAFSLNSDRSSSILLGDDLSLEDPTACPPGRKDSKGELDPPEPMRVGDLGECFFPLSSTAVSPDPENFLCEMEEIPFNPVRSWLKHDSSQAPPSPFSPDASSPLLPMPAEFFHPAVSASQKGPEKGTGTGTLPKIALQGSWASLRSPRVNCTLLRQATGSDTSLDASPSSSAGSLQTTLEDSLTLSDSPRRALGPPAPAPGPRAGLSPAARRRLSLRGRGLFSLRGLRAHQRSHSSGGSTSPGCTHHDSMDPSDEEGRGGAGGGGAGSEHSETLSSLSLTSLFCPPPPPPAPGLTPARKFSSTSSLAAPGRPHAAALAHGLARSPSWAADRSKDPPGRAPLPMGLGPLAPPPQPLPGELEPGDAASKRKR

CCCCCn1cc(C(=O)N2CCN(C(=O)OC(C)(C)C)CC2)c2ccccc21 [SB2193]
Tmax [1, 3]: ≤ 15 min | half-life [1, 3]: 29 min | Cmax ([1]; wildtype F1, in vivo, ip, mouse plasma, read-out: Cmax): 750 ± 50 nM | Cmax ([1]; wildtype F1, in vivo, ip, mouse plasma, read-out: Cmax (μg/mL)): 0.3 ± 0.02 µg/mL | Kp ([1]; wildtype F1, in vivo, ip, mouse, read-out: brain-plasma ratio): 2.7 | Tmax ([1]; wildtype F1, ip, mouse brain): ≤ 15 min | half-life ([1]; wildtype F1, ip, mouse brain): 28 min | Cmax ([1]; wildtype F1, ip, mouse brain, read-out: Cmax): 3000 ± 1000 nM | Cmax ([1]; wildtype F1, ip, mouse brain, read-out: Cmax (μg/mL)): 1.2 ± 0.4 µg/mL | AUC ([1]; ip, mouse brain, brain concentration converted assuming density of 1 g/mL): 583 ng·h/mL | AUC ([1]; ip, mouse plasma): 217 ng·h/mL | inhibition of T-type channels (T-type channels): strongly inhibit | IC50 (human Cav3.1): 0.75 µM | IC50 (human Cav3.2): 5.9 µM | IC50 (human Cav3.3): 5.4 µM | aqueous solubility [2]: poor aqueous solubility
